Reference: article PMC7738880, “Identification of novel CD44v6-binding peptides that block CD44v6 and deliver a pro-apoptotic peptide to tumors to inhibit tumor growth and metastasis in mice” (Theranostics, 2021)
Residues, ends and D or L forms follow the SMILES beside them.

Experiments:
[1] = test system: MDA-MB231 subcutaneous tumors; assay: In vivo whole-body and ex vivo fluorescence imaging of tumor homing; design: species or system BALB/c nude mouse; conditions: Flamma 675 NIR dye-labeled peptide 1 mg/kg i.v.; for ex vivo accumulation in tumors versus organs: 6 h post-injection, n = 3/group; for in vivo fluorescence signals at tumor areas: imaging 1-6 h
Procedure: Mice for animal experiments were purchased from Orient Bio Inc. (Seongnam, Korea) and maintained in conformance with the Guidelines of the Institutional Animal Care and Use Committee of Kyungpook National University (permission no. 2014-1-121). A total of 1 × 10^6 MDA-MB231 cells were subcutaneously injected into the right flank of each 6-week-old female BALB/c nude mouse. When the tumor reached a volume of approximately 100 mm^3, the mouse was injected intravenously with Flamma 675 NIR fluorescence dye-labeled peptides (1 mg/kg body weight). Whole-body fluorescence imaging was performed under inhalational anesthesia using an IVIS imaging system (Perkin Elmer). After in vivo imaging, each mouse was euthanized, the tumor and control organs (liver, kidney, spleen, heart, and lung) were isolated, and ex vivo images were obtained using the IVIS imaging system.

MDA-MB231-luc cells = assay: MDA-MB231-luc experimental lung metastasis model; type: in vivo; conditions: for number of tumor nodules in the lungs, peptide in combination with crizotinib versus single treatment / survival rate, peptide in combination with crizotinib versus single treatment: peptide 14.2 mg/kg i.v. plus crizotinib 25 mg/kg oral; for numbers of metastatic tumor nodules in the lungs / weights of the isolated lungs: peptide 14.2 mg/kg i.v. thrice weekly for 3 weeks; for luminescence signals and total photon flux in the whole body: peptide 14.2 mg/kg i.v. thrice weekly for 3 weeks from 1 h after tumor cell injection; for survival rate: peptide 14.2 mg/kg i.v. thrice weekly or crizotinib 25 mg/kg oral twice weekly, 3 weeks, single treatment; for liver and kidney functional marker levels (BUN, CRE, AST, ALT): peptide alone or in combination with crizotinib, serum, n = 5/group
Procedure: A mouse model of lung metastasis of breast cancer was prepared by injecting 1 × 10^6 MDA-MB231-luc cells into 6-week-old female BALB/c nude mice via tail vein. To monitor the localization of the tumor cells in the lungs, the mice were injected intraperitoneally with D-luciferin at a dose of 150 mg/kg body weight and subjected to a whole-body bioluminescence imaging using IVIS imaging system (Perkin Elmer) after a 10-min resting period. Mice (n = 10 per group) were randomly assigned to groups based on the luminescence intensity. At 1 h after tumor cell injection, tumor-bearing mice received intravenous injections of CD44v6-binding peptides through the tail vein (14.2 mg/kg body weight, thrice weekly for 3 weeks) alone or in combination with orally administered crizotinib in 5% dimethyl sulfoxide (DMSO) (25 mg/kg of body weight, twice weekly for 3 weeks) as previously described, [29]. Metastatic tumor growth after treatments was monitored by measuring the total photon flux (number of photons/second) in the whole body using the IVIS imaging system. The body weights of mice and tumor ulceration were monitored throughout the treatment period. At the end of the treatment period, half of the mice (n = 5 per group) were used for the collection of blood, sacrificed, the lungs were harvested and weighed, and the numbers of metastatic tumor nodules in the lungs were counted. The remaining mice (n = 5 per group) were maintained until death to determine the survival rates. For the analysis of hematological parameters, 1 mL of blood was collected from each mouse and separated into 500 µL aliquots used to prepare serum and plasma. Serum was obtained by centrifuging clotted blood at 4 °C twice, followed by filtration (pore size: 0.22 µm). Plasma was obtained by centrifuging ethylenediaminetetraacetic acid-treated samples. Hematological parameters and liver and kidney function markers were measured by DGMIF (Daegu, Korea).

[2] = test system: c-Met and Erk phosphorylation in 4T1 cells; assay: Western blotting of HGF-induced c-Met and Erk phosphorylation, 4T1; type: cell-based, mouse; conditions: peptide pre-treatment 10 min, HGF 25 ng/mL 10 min
Procedure: To examine c-Met and Erk phosphorylation, MDA-MB231 cells were serum-starved for 24 h, pre-treated with CD44v6-binding peptides (20 µM) for 10 min, and incubated with 25 ng/mL HGF for 10 min. After the incubation, the cell lysates were subjected to Western blotting analyses using an anti-phospho-Met rabbit monoclonal antibody (clone no. D26; Cell Signaling Technology), anti-Met mouse monoclonal antibody (clone no. 25H2, 1:1000 dilution; Cell Signaling Technology), anti-phospho-Erk1/2 rabbit monoclonal antibody (clone no. 197G2; Cell Signaling Technology), and anti-ERK1 rabbit polyclonal antibody (1:1000 dilution; Santa Cruz Biotechnology). The labeled bands on immunoblots were detected using enhanced chemiluminescence reagents (ThermoFisher Scientific).
Supplementary Figure S3. NLN and NEW inhibit HGF-induced c-Met phosphorylation and cell migration and invasion in 4T1 breast tumor cells. (A) Western blotting analysis of c-Met and Erk phosphorylation in 4T1 cells pretreated or not with 5 μg/mL NLN and NEW for 10 min and treated with 25 ng/mL HGF for 10 min. (B) The quantification of c-Met and Erk […]
(1 picture or pasted object on this page, not shown here)

4T1 cells = assay: Transwell cell migration and invasion assays, 4T1; type: cell-based, mouse; conditions: HGF 25 ng/mL, 24 h
Procedure: Transwell chambers (24-wells) with 8 μm pores were obtained from Corning (Corning, NY). MDA-MB231 and 4T1 cells (1 × 10^6 cells) were harvested, resuspended in 200 μL of DMEM containing CD44v6-binding peptides (20 µM), and then seeded into the upper chamber of the transwell chambers. The lower chamber was filled with 600 μL of DMEM containing 25 ng/mL HGF. After 24 h of incubation, cells that migrated into the reverse side of the transwell membrane were fixed with methanol, stained with crystal violet, and then counted under a light microscope. An average of five visual fields was obtained. For invasion assays, the transwell membrane was pre-coated with 300 µg/mL of Matrigel (Corning). […]
phosphorylation in 4T1 cells. (C-D) Transwell migration (C) and invasion (D) assays of 4T1 cells pre-treated or not with 5 μg/mL NLN and NEW for 10 min and subsequently treated with 25 ng/mL HGF for 10 min, followed by incubation for 24 h. Scale bars = 20 μm. Graphs (right panels) represent the quantification of the cell numbers in ten randomly selected fields. Data are shown as the means ± S.E. of three independent experiment. **, P < 0.01; ***, P < 0.001; n.s, not significant compared with HGF by one-way ANOVA.

CC[C@H](C)[C@H](NC(=O)[C@@H](NC(=O)[C@H](CC(N)=O)NC(=O)[C@H](CC(C)C)NC(=O)[C@H](CC(N)=O)NC(=O)[C@@H](N)CS)[C@@H](C)O)C(=O)N[C@@H](CC(=O)O)C(=O)N[C@H](C(=O)N[C@@H](CS)C(=O)O)[C@@H](C)O [NLN] (H-CNLNTIDTC-OH; N-terminus and C-terminus assumed)
ex vivo accumulation in tumors versus organs [1]: higher levels of NLN and NEW accumulation in tumors than in control organs | in vivo fluorescence signals at tumor areas [1]: higher than those associated with the control peptide until 4 h | serum alanine transferase levels (MDA-MB231-luc cells; above the normal ranges, 14.2 mg/kg i.v. thrice weekly for 3 weeks): significantly increased | number of tumor nodules in the lungs, peptide in combination with crizotinib versus single treatment (MDA-MB231-luc cells): more efficiently reduced | survival rate, peptide in combination with crizotinib versus single treatment (MDA-MB231-luc cells): increased the survival rate | numbers of metastatic tumor nodules in the lungs (MDA-MB231-luc cells): reduced | weights of the isolated lungs (MDA-MB231-luc cells): reduced | luminescence signals and total photon flux in the whole body (MDA-MB231-luc cells): decreased | survival rate (MDA-MB231-luc cells): increased | liver and kidney functional marker levels (BUN, CRE, AST, ALT) (MDA-MB231-luc cells): within or close to the normal ranges | HGF-induced phosphorylation of c-Met and Erk, 4T1 [2]: inhibited | HGF-induced cell migration and invasion, 4T1 (4T1 cells): inhibited

CC(C)C[C@H](NC(=O)[C@H](CCC(N)=O)NC(=O)[C@H](Cc1c[nH]c2ccccc12)NC(=O)[C@H](CCC(=O)O)NC(=O)[C@H](CC(N)=O)NC(=O)[C@@H](N)CS)C(=O)N[C@@H](CCCCN)C(=O)N[C@@H](CO)C(=O)N[C@@H](CS)C(=O)O [NEW] (H-CNEWQLKSC-OH; N-terminus and C-terminus assumed)
ex vivo accumulation in tumors versus organs [1]: higher levels of NLN and NEW accumulation in tumors than in control organs | in vivo fluorescence signals at tumor areas [1]: higher than those associated with the control peptide until 4 h | number of tumor nodules in the lungs, peptide in combination with crizotinib versus single treatment (MDA-MB231-luc cells): more efficiently reduced | survival rate, peptide in combination with crizotinib versus single treatment (MDA-MB231-luc cells): increased the survival rate | numbers of metastatic tumor nodules in the lungs (MDA-MB231-luc cells): reduced | weights of the isolated lungs (MDA-MB231-luc cells): reduced | luminescence signals and total photon flux in the whole body (MDA-MB231-luc cells): decreased | survival rate (MDA-MB231-luc cells): increased | liver and kidney functional marker levels (BUN, CRE, AST, ALT) (MDA-MB231-luc cells): within or close to the normal ranges | HGF-induced phosphorylation of c-Met and Erk, 4T1 [2]: inhibited | HGF-induced cell migration and invasion, 4T1 (4T1 cells): inhibited
